{
  "source": "patent US20240148714A1",
  "about": "“Triple Negative Breast Cancer Treatment Method” (Exelixis, Inc., priority 2016, published 2024)",
  "system": "circulating mononuclear cells",
  "assay": "Circulating cell biomarkers by flow cytometry in serial blood samples",
  "assay_type": "in vivo, human",
  "description": "Experimental design: In this single-arm, two-stage phase 2 study, patients with metastatic TNBC with measurable disease by RECIST and up to 3 lines of prior chemotherapy for metastatic disease received cabozantinib 60 mg daily on a 21-day cycle. Patients were restaged 6 weeks following treatment initiation and every 9 weeks thereafter. The primary endpoint was objective response rate (ORR). Predefined secondary endpoints included progression free survival (PFS) and toxicity. Here, we examined cellular biomarkers using flow cytometry in serial blood samples collected at days 0 (baseline/pre-treatment), 8, 22, 43, and 64 of cabozantinib treatment. Mixed effect models were used to evaluate the changes of biomarker levels over time from baseline to day 64. Wilcoxon signed rank test were used to evaluate whether the change of biomarker levels from baseline to day 8 were different by clinical benefit. Adjusted p-values controlling false discovery rate were used to adjust for multiple comparisons.\nThe primary endpoint was the activity of cabozantinib, as defined by objective response rate (ORR) in patients with mTNBC. Predefined secondary endpoints included progression-free survival (PFS), toxicity, and pain. Correlative studies included analysis of MET and phospho-MET expression in archival tumor tissue, and molecular and cellular biomarkers of cabozantinib. Cellular biomarkers were examined using flow cytometry in serial blood samples collected at days 0 (baseline/pre-treatment), 8, 22, 43, and 64 of cabozantinib treatment. Mixed effect models were used to evaluate the changes of biomarker levels over time from baseline to day 64. Wilcoxon signed rank test were used to evaluate whether the change of biomarker levels from baseline to day 8 were different by clinical benefit. Adjusted p-values controlling false discovery rate were used to adjust for multiple comparisons.\nCirculating Biomarker Assays: Potential biomarkers of cabozantinib activity were identified by measuring plasma proteins at baseline, on day 8 of therapy, on day 1 of each cycle of therapy, and, if available, at the time of progression. Eight milliliters of blood was collected in purple top (plasma EDTA) vacutainers and shipped on wet ice to a Clinical Laboratory Improvement Amendments-certified core in the Steele Laboratories (Massachusetts General Hospital), where whole blood was separated by centrifugation into cellular fraction and plasma. The fraction of stem/progenitor cell, lymphocyte, and myeloid populations of total circulating mononuclear cells were counted by flow cytometry using a LSR-II cytometer and FACSDiva software in fresh blood samples using the following markers: CD3, CD4, CD8, CD14, CD25, CD34, CD45, CD56, CD127, and CD133 (Becton Dickinson, Franklin Lakes, NJ, www.bd.com). Plasma was prepared in the standard fashion and stored at −78° C. until collection and analysis of all samples. The biomarkers measured included VEGF, placental growth factor (PlGF), VEGF-C, VEGF-D, soluble VEGFR1 (sVEGFR1), basic fibroblast growth factor (bFGF), and sTie-2 (using a 7-plex Growth Factor array) and granulocyte-macrophage colony stimulating factor (GM-CSF), interferon gamma (IFN-g), tumor necrosis factor alpha (TNF-a), and interleukin-1beta (IL-1b), IL-2, IL-6, IL-8, IL-10, and IL-12 heterodimer p70 (using a 9-plex Inflammatory Factor array; both Meso Scale Discovery, Gaithersburg, MD, www.mesoscale.com); and HGF, sMET, carbonic anhydrase IX (CAIX), stromal cell-derived factor 1 a (SDF1a), and sVEGFR2 by single analyte enzyme-linked immunosorbent assay (R&D Systems, Minneapolis, MN, www.rndsystems.com).\nDescriptive statistics were used to summarize biomarker values at protocol-specific time points. […] The Wilcoxon signed rank test assessed biomarker change from day 1 to 8. Mixed effects linear models assessed the change in biomarker values at days 1, 8, 22, 43, and 64; values beyond day 64 were not analyzed because of the small number of patients still on protocol. […]",
  "key": {"[1]": {"details": "after cabozantinib, baseline to day 64"}},
  "note": "Entries after “also recorded” stand apart in the source; their conditions may differ.",
  "data": [
    {"smiles": "COc1cc2nccc(Oc3ccc(NC(=O)C4(C(=O)Nc5ccc(F)cc5)CC4)cc3)c2cc1OC", "note": "[cabozantinib]", "values": [
      {"measurement": "CD3+ (lymphocytes), Median", "setting": "Day 1 (baseline)", "result": "34.73 % of WBC"},
      {"measurement": "CD3 + CD8 − CD4 + CD25+, Median", "setting": "Day 1 (baseline)", "result": "0.66 % of WBC"},
      {"measurement": "CD3 + CD8 − CD4 + CD25−, Median", "setting": "Day 1 (baseline)", "result": "11.41 % of WBC"},
      {"measurement": "CD3 + CD8 − CD4+, Median", "setting": "Day 1 (baseline)", "result": "0.15 % of WBC"},
      {"measurement": "CD3 + CD56+ (NKT cells), Median", "setting": "Day 1 (baseline)", "result": "0.77 % of WBC"},
      {"measurement": "CD3 − CD56+ (NK cells), Median", "setting": "Day 1 (baseline)", "result": "5.84 % of WBC"},
      {"measurement": "CD14+ (monocytes), Median", "setting": "Day 1 (baseline)", "result": "42.20 % of WBC"},
      {"measurement": "CD34 + CD133+ cells, Median", "setting": "Day 1 (baseline)", "result": "0.17 % of WBC"},
      {"measurement": "CD3+ (lymphocytes), Median", "setting": "Day 8", "result": "24.06 % of WBC"},
      {"measurement": "CD3 + CD8 − CD4 + CD25+, Median", "setting": "Day 8", "result": "0.79 % of WBC"},
      {"measurement": "CD3 + CD8 − CD4 + CD25−, Median", "setting": "Day 8", "result": "14.18 % of WBC"},
      {"measurement": "CD3 + CD8 − CD4+, Median", "setting": "Day 8", "result": "0.17 % of WBC"},
      {"measurement": "CD3 + CD56+ (NKT cells), Median", "setting": "Day 8", "result": "0.85 % of WBC"},
      {"measurement": "CD3 − CD56+ (NK cells), Median", "setting": "Day 8", "result": "7.27 % of WBC"},
      {"measurement": "CD14+ (monocytes), Median", "setting": "Day 8", "result": "31.44 % of WBC"},
      {"measurement": "CD34 + CD133+ cells, Median", "setting": "Day 8", "result": "0.11 % of WBC"},
      {"measurement": "CD3+ (lymphocytes), Median", "setting": "Day 22", "result": "33.56 % of WBC"},
      {"measurement": "CD3 + CD8 − CD4 + CD25+, Median", "setting": "Day 22", "result": "0.59 % of WBC"},
      {"measurement": "CD3 + CD8 − CD4 + CD25−, Median", "setting": "Day 22", "result": "16.41 % of WBC"},
      {"measurement": "CD3 + CD8 − CD4+, Median", "setting": "Day 22", "result": "0.18 % of WBC"},
      {"measurement": "CD3 + CD56+ (NKT cells), Median", "setting": "Day 22", "result": "0.54 % of WBC"},
      {"measurement": "CD3 − CD56+ (NK cells), Median", "setting": "Day 22", "result": "8.51 % of WBC"},
      {"measurement": "CD14+ (monocytes), Median", "setting": "Day 22", "result": "19.03 % of WBC"},
      {"measurement": "CD34 + CD133+ cells, Median", "setting": "Day 22", "result": "0.12 % of WBC"},
      {"measurement": "CD3+ (lymphocytes), Median", "setting": "Day 43", "result": "32.79 % of WBC"},
      {"measurement": "CD3 + CD8 − CD4 + CD25+, Median", "setting": "Day 43", "result": "0.73 % of WBC"},
      {"measurement": "CD3 + CD8 − CD4 + CD25−, Median", "setting": "Day 43", "result": "17.71 % of WBC"},
      {"measurement": "CD3 + CD8 − CD4+, Median", "setting": "Day 43", "result": "0.19 % of WBC"},
      {"measurement": "CD3 + CD56+ (NKT cells), Median", "setting": "Day 43", "result": "1.02 % of WBC"},
      {"measurement": "CD3 − CD56+ (NK cells), Median", "setting": "Day 43", "result": "6.50 % of WBC"},
      {"measurement": "CD14+ (monocytes), Median", "setting": "Day 43", "result": "24.79 % of WBC"},
      {"measurement": "CD34 + CD133+ cells, Median", "setting": "Day 43", "result": "0.18 % of WBC"},
      {"measurement": "CD3+ (lymphocytes), Median", "setting": "Day 64", "result": "30.99 % of WBC"},
      {"measurement": "CD3 + CD8 − CD4 + CD25+, Median", "setting": "Day 64", "result": "0.61 % of WBC"},
      {"measurement": "CD3 + CD8 − CD4 + CD25−, Median", "setting": "Day 64", "result": "15.29 % of WBC"},
      {"measurement": "CD3 + CD8 − CD4+, Median", "setting": "Day 64", "result": "0.19 % of WBC"},
      {"measurement": "CD3 + CD56+ (NKT cells), Median", "setting": "Day 64", "result": "0.98 % of WBC"},
      {"measurement": "CD3 − CD56+ (NK cells), Median", "setting": "Day 64", "result": "8.13 % of WBC"},
      {"measurement": "CD14+ (monocytes), Median", "setting": "Day 64", "result": "23.48 % of WBC"},
      {"measurement": "CD34 + CD133+ cells, Median", "setting": "Day 64", "result": "0.11 % of WBC"},
      {"measurement": "change in CD4+ cells (CD3+CD4+CD8− T)", "setting": "[1]", "result": "trend for increase; also recorded: nonsignificant trend toward increase"},
      {"measurement": "change in CD14+ monocytes", "setting": "[1]", "result": "persistent decrease"},
      {"measurement": "change in CD56+ NK cells (CD3−CD56+ NK lymphocytes)", "setting": "[1]", "result": "trend for increase; also recorded: nonsignificant trend toward increase"},
      {"measurement": "change in circulating CD3+ cells", "setting": "[1]", "result": "significant increase; also recorded: persistent increase"},
      {"measurement": "change in circulating CD8+ T cells (CD3+CD4−CD8+ T lymphocytes)", "setting": "[1]", "result": "significant increase"},
      {"measurement": "change in fraction of CD3+CD56+ NKT cells", "setting": "baseline to day 64", "result": "no significant changes"},
      {"measurement": "change in fraction of CD4+CD25+ Tregs", "setting": "baseline to day 64", "result": "no significant changes"},
      {"measurement": "change in fraction of CD4+CD127+ memory T cells", "setting": "baseline to day 64", "result": "no significant changes"},
      {"measurement": "change in fraction of CD133+ progenitor/stem cells", "setting": "baseline to day 64", "result": "no significant changes"},
      {"measurement": "effect on circulating cell biomarkers (summary)", "setting": "metastatic TNBC patients", "result": "systemic changes consistent with activation of the immune system"}
    ]}
  ]
}
